The source of these data is article PMC12389269, “Heteroaryl-Capped Hydroxamic Acid Derivatives with Varied Linkers: Synthesis and Anticancer Evaluation with Various Apoptosis Analyses in Breast Cancer Cells, Including Docking, Simulation, DFT, and ADMET Studies” (Pharmaceuticals, 2025).

Molecules are shown by their SMILES. ≈ marks a conversion by molar mass, not a printed value. Like-named read-outs stand apart in the source and are kept apart here. Where only a bound is given, the exact number is not on record here.

In assay [1] the test system is MCF-7 (Human Breast Cancer Cell Line). Nature of the assay: SRB antiproliferative assay, MCF-7. Format: cell-based. As to the method:
(§1) Following an extensive review of the literature, we selected human breast cancer (MCF-7, MDA-MB-231) and lung cancer (A549) cell lines to evaluate the anticancer potential of the synthesized compounds, and some compounds with good anti-proliferation activity were again tested to evaluate their cytotoxic potential on A-549, MCF-7, and MDA-MB-231. The same were also tested on one non-cancerous/normal (HEK-293) cell line. All the cell lines for the required screening were developed in a suitable medium comprising 10% FBS and 2mM L-glutamine. Cancerous and non-cancerous/normal cell lines were selected for the cell proliferation and cytotoxicity assay and maintained with 5% CO2 at 37 °C in a CO2 incubator with 100% relative humidity for one complete day before the addition of experimental drugs.
(§2) Antiproliferative activity through an SRB assay was performed for all the synthesized compounds on A-549 and MCF-7 cell lines. Around 5000 cells/well were quarantined into a 96-well microtiter plate in 100 μL. The synthesized compounds were solubilized in DMSO and diluted to different concentrations before use. The final-drug-concentration aliquots were poured into microtiter wells, and the plates were incubated for 48 h in regular conditions. After adding the final drug concentration, the cells were allowed to set in place and incubated for 60 min. A total of 50 µL of SRB solution (0.4% w/v) in 1% CH3COOH was poured into each well. The plates were then incubated for 20 min at RT. During subsequent staining, the unbounded dye was removed, and the plate reader recorded the eluted bound stain at 540 nm with a 690 nm reference wavelength. The assay was performed precisely using the appropriate reagents and reaction situation, as per the reported procedure. ADR was selected as the reference drug.
(In general: Sulforhodamine B stains cellular protein and so reports cell mass.)

The subject of assay [2] is A-549 (Human Lung Cancer Cell Line). Nature of the assay: SRB antiproliferative assay, A-549. Format: cell-based. As to the method:
as §1, §2

A further assay deals with T1, HDAC1 (Homo sapiens, UniProt Q13547).
T1 construct: The HeLa nuclear extract was used as a source of HDAC activity; host or cells: HeLa (nuclear extract / cells)
T1 sequence (Q13547 whole entry): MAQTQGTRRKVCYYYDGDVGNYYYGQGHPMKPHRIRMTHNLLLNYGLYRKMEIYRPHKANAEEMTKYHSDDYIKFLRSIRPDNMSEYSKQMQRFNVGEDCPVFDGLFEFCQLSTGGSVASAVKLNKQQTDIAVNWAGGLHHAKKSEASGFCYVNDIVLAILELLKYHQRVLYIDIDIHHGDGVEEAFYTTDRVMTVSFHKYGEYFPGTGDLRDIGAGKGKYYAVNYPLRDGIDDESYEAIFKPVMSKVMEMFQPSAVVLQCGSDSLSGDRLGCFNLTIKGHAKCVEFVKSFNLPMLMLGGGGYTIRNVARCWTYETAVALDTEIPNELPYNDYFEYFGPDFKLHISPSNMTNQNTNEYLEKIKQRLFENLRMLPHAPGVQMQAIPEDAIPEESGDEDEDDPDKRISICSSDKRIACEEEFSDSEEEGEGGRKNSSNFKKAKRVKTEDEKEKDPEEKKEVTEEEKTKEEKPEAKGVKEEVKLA
Put plainly: HDAC inhibition assay (color de lys ELISA kit), HDAC1. Format: biochemical. The note with it: HeLa nuclear extract as source of HDAC activity. The protocol: (§3) SAHA served as the assay’s positive control. The HeLa nuclear extract was used as a source of HDAC activity. The trypsinized HeLa cells were tallied, put into 96-well microtiter plates, and nurtured. Samples and the standard were placed in wells at a concentration of 100 µL. The culture environment was maintained as per the procedure. 3,3′,5,5′-tetramethylbenzidine (TMB) was included for visualization. Finally, 50 µL of halt solution was smeared. The samples and different SAHA concentrations (0.01, 0.1, 1, 10 μM) were introduced to the appropriate well and left for 72 h. BioTek Epoch (Winooski, VT, USA) microplate reader was used to quantify optical density at 450 nm. The Graph Pad Prism 5 helped to determine the IC50 values.
(ELISA stands for enzyme-linked immunosorbent assay.)

In the next assay the target is T2, HDAC6 (Homo sapiens, UniProt Q9UBN7).
T2 construct: The HeLa nuclear extract was used as a source of HDAC activity; host or cells: HeLa (nuclear extract / cells)
T2 sequence (Q9UBN7 1-1215): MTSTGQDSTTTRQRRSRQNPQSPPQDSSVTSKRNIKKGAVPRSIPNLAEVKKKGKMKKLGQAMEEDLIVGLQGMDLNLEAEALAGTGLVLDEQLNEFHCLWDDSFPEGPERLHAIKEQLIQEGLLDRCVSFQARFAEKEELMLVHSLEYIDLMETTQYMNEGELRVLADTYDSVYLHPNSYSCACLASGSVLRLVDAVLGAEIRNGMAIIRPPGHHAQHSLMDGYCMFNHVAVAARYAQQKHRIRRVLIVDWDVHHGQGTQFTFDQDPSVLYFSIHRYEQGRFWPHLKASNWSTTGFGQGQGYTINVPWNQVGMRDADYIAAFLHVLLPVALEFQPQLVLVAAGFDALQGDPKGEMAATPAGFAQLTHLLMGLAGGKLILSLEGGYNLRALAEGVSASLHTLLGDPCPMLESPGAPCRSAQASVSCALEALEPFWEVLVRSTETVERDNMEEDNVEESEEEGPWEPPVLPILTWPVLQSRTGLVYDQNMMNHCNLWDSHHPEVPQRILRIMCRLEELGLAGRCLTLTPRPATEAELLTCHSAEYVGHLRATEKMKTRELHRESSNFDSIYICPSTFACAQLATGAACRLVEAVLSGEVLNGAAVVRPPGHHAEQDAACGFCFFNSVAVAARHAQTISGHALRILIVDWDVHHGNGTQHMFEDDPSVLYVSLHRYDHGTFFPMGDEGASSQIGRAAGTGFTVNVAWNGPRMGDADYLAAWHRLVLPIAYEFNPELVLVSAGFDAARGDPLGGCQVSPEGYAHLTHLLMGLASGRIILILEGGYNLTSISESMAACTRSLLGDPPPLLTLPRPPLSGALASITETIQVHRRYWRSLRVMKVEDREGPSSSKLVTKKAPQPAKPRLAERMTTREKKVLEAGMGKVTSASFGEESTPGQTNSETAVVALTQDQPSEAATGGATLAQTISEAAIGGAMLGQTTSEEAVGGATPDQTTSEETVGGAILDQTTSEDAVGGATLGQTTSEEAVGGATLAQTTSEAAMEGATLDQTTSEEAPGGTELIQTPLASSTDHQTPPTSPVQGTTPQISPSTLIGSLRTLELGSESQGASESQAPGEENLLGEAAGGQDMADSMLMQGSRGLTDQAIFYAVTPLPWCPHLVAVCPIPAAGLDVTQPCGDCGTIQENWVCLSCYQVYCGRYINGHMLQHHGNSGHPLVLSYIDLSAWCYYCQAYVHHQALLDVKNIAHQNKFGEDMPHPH
Nature of the assay: HDAC inhibition assay (color de lys ELISA kit), HDAC6. Format: biochemical. The note with it: HeLa nuclear extract as source of HDAC activity. The protocol: as §3

Setting [3] is: Homo sapiens, MCF7, MCF-7, 48 h, read-out: GI50.
[4] abbreviates: Homo sapiens, A549, A-549, 48 h, read-out: GI50.

For the compound `COc1cccc2c1C(=O)c1c(O)c3c(c(O)c1C2=O)C[C@@](O)(C(=O)CO)C[C@@H]3O[C@H]1C[C@H](N)[C@H](O)[C@H](C)O1` [ADR, reference compound], the concentration for 50% growth inhibition (GI50) in assay [1] (MCF-7, 48 h) was below 10 µg/mL; in assay [2] (A-549, 48 h), below 10 µg/mL.
Turning to `COc1ccc(-c2cnn(-c3ccc(C(=O)CCC(=O)NO)cc3)n2)cc1` [VI(a), N-Hydroxy-4-(4-(4-(4-methoxyphenyl)-2H-1,2,3-triazol-2-yl)phenyl)-4-oxobutanamide], the GI50 came to 15.1 µg/mL (≈ 41.3 µM) in assay [1] (setting [3]) and 19.4 µg/mL (≈ 52.8 µM) in assay [2] (setting [4]).
For `O=C(CCC(=O)c1ccc(-n2ncc(-c3ccc([N+](=O)[O-])cc3)n2)cc1)NO` [VI(b), N-Hydroxy-4-(4-(4-(4-nitrophenyl)-2H-1,2,3-triazol-2-yl)phenyl)-4-oxobutanamide], the values for the IC50 at HDAC1 and at HDAC6 were 21.1 µM and 24.2 µM, respectively. The GI50 in assay [1] (setting [3]) and in assay [2] (setting [4]) was below 10 µg/mL in each case.
On to `O=C(CCC(=O)c1ccc(-n2ncc(-c3ccc(Cl)cc3)n2)cc1)NO` [VI(c), 4-(4-(4-(4-Chlorophenyl)-2H-1,2,3-triazol-2-yl)phenyl)-N-hydroxy-4-oxobutanamide], for which the IC50 at HDAC1 was 21.2 µM; against HDAC6 it was 31.7 µM. The concentration for 50% growth inhibition (GI50) in assay [1] (setting [3]) and in assay [2] (setting [4]) was below 10 µg/mL in each case.
As for `Cc1ccc(-c2cnn(-c3ccc(C(=O)CCC(=O)NO)cc3)n2)cc1` [VI(d), N-Hydroxy-4-oxo-4-(4-(4-(p-tolyl)-2H-1,2,3-triazol-2-yl)phenyl)butanamide], the GI50 in assay [1] (setting [3]) was determined as 12.9 µg/mL (≈ 36.8 µM); in assay [2] (setting [4]), 14.7 µg/mL (≈ 41.9 µM).
Regarding `O=C(CCC(=O)c1ccc(-n2ncc(-c3ccc(O)cc3)n2)cc1)NO` [VI(e), N-Hydroxy-4-(4-(4-(4-hydroxyphenyl)-2H-1,2,3-triazol-2-yl)phenyl)-4-oxobutanamide], the IC50 is 27.2 µM against HDAC1 and 18.6 µM on HDAC6. Further, the GI50 in assay [1] (setting [3]) and in assay [2] (setting [4]) was below 10 µg/mL in each case.
Consider `O=C(CCC(=O)c1ccc(-n2ncc(-c3ccc(F)cc3)n2)cc1)NO` [VI(f), 4-(4-(4-(4-Fluorophenyl)-2H-1,2,3-triazol-2-yl)phenyl)-N-hydroxy-4-oxobutanamide], for which the 50% growth inhibitory concentration (GI50) is below 10 µg/mL in assay [1] (setting [3]) and 26.9 µg/mL (≈ 76 µM) in assay [2] (setting [4]).
Take `COc1ccc(-c2cnn(-c3ccc(C(=O)CCC(=O)NO)cc3)n2)cc1OC` [VI(g), 4-(4-(4-(3,4-Dimethoxyphenyl)-2H-1,2,3-triazol-2-yl)phenyl)-N-hydroxy-4-oxobutanamide]: the GI50 in assay [1] (setting [3]) was 15 µg/mL (≈ 37.8 µM); in assay [2] (setting [4]), 53 µg/mL (≈ 134 µM).
For `O=C(CCCCCn1ncc(-c2ccc(Cl)cc2)n1)NO` [VI(h), 6-(4-(4-Chlorophenyl)-2H-1,2,3-triazol-2-yl)-N-hydroxyhexanamide], in that order: 50 µg/mL (≈ 162 µM) and above 80 µg/mL.
Take `O=C(CCCCCn1ncc(-c2ccc(O)cc2)n1)NO` [VI(j), N-Hydroxy-6-(4-(4-hydroxyphenyl)-2H-1,2,3-triazol-2-yl)hexanamide]: the values for the GI50 in assay [1] (setting [3]) and in assay [2] (setting [4]) were 17 µg/mL (≈ 58.6 µM) and 50 µg/mL (≈ 172 µM), respectively.
Consider `Cc1ccc(-c2cnn(CCCCCC(=O)NO)n2)cc1` [VI(k), N-Hydroxy-6-(4-(p-tolyl)-2H-1,2,3-triazol-2-Yl)hexanamide], for which the results for the GI50 in assay [1] (setting [3]) and in assay [2] (setting [4]) were 14.9 µg/mL (≈ 51.5 µM) and above 80 µg/mL, respectively.
Consider `O=C(CCc1ccc(-n2ncc(-c3ccc(Cl)cc3)n2)cc1)NO` [VI(l), 3-(4-(4-(4-Chlorophenyl)-2H-1,2,3-triazol-2-Yl)phenyl)-N-hydroxypropanamide], for which the concentration for 50% growth inhibition (GI50) in assay [1] (setting [3]) and in assay [2] (setting [4]) was above 80 µg/mL in each case.
Turning to `Cc1ccc(-c2cnn(-c3ccc(CCC(=O)NO)cc3)n2)cc1` [VI(m), N-Hydroxy-3-(4-(4-(p-tolyl)-2H-1,2,3-triazol-2-yl)phenyl)propanamide], the GI50 in assay [1] (setting [3]) and in assay [2] (setting [4]) was above 80 µg/mL each time.
Regarding `O=C(CCc1ccc(-n2ncc(-c3ccc(O)cc3)n2)cc1)NO` [VI(n), N-Hydroxy-3-(4-(4-(4-hydroxyphenyl)-2H-1,2,3-triazol-2-yl)phenyl)propanamide], the GI50 in assay [1] (setting [3]) and in assay [2] (setting [4]) was above 80 µg/mL each time.
With `COc1ccc(-c2cnn(-c3ccc(CCC(=O)NO)cc3)n2)cc1` [VI(o), N-Hydroxy-3-(4-(4-(4-methoxyphenyl)-2H-1,2,3-triazol-2-Yl)phenyl)propanamide], the GI50 in assay [1] (setting [3]) is above 80 µg/mL; in assay [2] (setting [4]), 62 µg/mL (≈ 183 µM).

The term GI50 denotes the concentration at which growth is held to half of that of the control. By IC50 is commonly meant the concentration that gives 50% inhibition. High values mean weaker potency in that assay, low ones greater potency in that assay.
